In patent publication US11578087B2, “Oxaborole esters and uses thereof” (priority 2016, dated 2023):

How the values were obtained:
[1] = test system: T. cruzi amastigote (Td Tomato-modified) in Vero cells; assay: In vitro IC50 measurement of T. cruzi amastigote killing using Td Tomato-modified T. cruzi; assay type: cell-based; settings: Trypanosoma cruzi, 72 h, fluorescence, read-out: IC50: I Org. amastigote Growth T. cruzi 3 d
Procedure, shortened: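 Vero cells infected with Td Tomato-expressing T. cruzi, treated with compound at 5 uM to 5 nM final, incubated 72 h at 37 °C. Fluorescence (Ex 544/Em 612 nm) read at Day 0 and Day 3, Day 0 subtracted; IC50 and IC90 by nonlinear regression.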

[2] = test system: IL3000 T. congolense (drug sensitive) strain; assay: In vitro Alamar Blue 72 h drug sensitivity assay for T. congolense; assay type: cell-based, Trypanosoma congolense; settings: Trypanosoma congolense, 72 h, bloodstream form, 69 h + 3 h Resazurin, 34° C., read-out: IC50: I Org. Growth T. congolense 3 d
Procedure, shortened: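 Bloodstream-form trypanosomes in HMI medium with 20% bovine serum were exposed to compounds for 69 h at 34° C, 5% CO2, then resazurin for another 3 h. Fluorescence read at ex 536/em 588 nm; IC50 from 11-point sigmoidal dose-response curves, at least three independent runs.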

Compound | IC50 [1] | IC50 [2]
Cc1c(C(=O)N[C@H](C(=O)OCc2ccc(F)cn2)C(C)C)ccc2c1B(O)OC2 [Example 6-067, (5-Fluoropyridin-2-yl)methyl (1-hydroxy-7-methyl-1,3-dihydrobenzo[c][1,2]oxaborole-6-carbonyl)-L-valinate] | ≤ 20 nM | < 0.5 nM
Cc1c(C(=O)N[C@H](C(=O)OC2CCN(C)CC2)C(C)C)ccc2c1B(O)OC2 [Example 6-142, 1-Methylpiperidin-4-yl (1-hydroxy-7-methyl-1,3-dihydrobenzo[c][1,2]oxaborole-6-carbonyl)-L-valinate] | 21 to 999 nM | < 0.5 nM
Cc1c(C(=O)N[C@H](C(=O)OCc2ccc(C(F)(F)F)nc2)C(C)C)ccc2c1B(O)OC2 [Example 6-168, (6-(Trifluoromethyl)pyridin-3-yl)methyl (1-hydroxy-7-methyl-1,3-dihydrobenzo[c][1,2]oxaborole-6-carbonyl)-L-valinate] | ≤ 20 nM | < 0.5 nM
COCN(COC)S(=O)(=O)c1ccc(COC(=O)[C@@H](NC(=O)c2ccc3c(c2C)B(O)OC3)C(C)C)cc1 [Example 6-109, 4-(N,N-bis(methoxymethyl)sulfamoyl)benzyl (1-hydroxy-7-methyl-1,3-dihydrobenzo[c][1,2]oxaborole-6-carbonyl)-L-valinate] | 21 to 999 nM | 0.51 to 9.99 nM
Cc1c(C(=O)N[C@H](C(=O)OCCC(C)(C)O)C(C)C)ccc2c1B(O)OC2 [Example 6-209, 3-hydroxy-3-methylbutyl (1-hydroxy-7-methyl-1,3-dihydrobenzo[c][1,2]oxaborole-6-carbonyl)-L-valinate] | 21 to 999 nM | 0.51 to 9.99 nM
Cc1c(C(=O)N[C@H](C(=O)OCc2cccc(CN3CCNCC3)c2)C(C)C)ccc2c1B(O)OC2 [Example 6-117, 3-(Piperazin-1-ylmethyl)benzyl (1-hydroxy-7-methyl-1,3-dihydrobenzo[c][1,2]oxaborole-6-carbonyl)-L-valinate] | ≥ 1000 nM | 10 to 5000 nM
Cc1c(C(=O)N[C@H](C(=O)OCc2cncc(N3CCOCC3)n2)C(C)C)ccc2c1B(O)OC2 [Example 6-193, (6-morpholinopyrazin-2-yl)methyl (1-hydroxy-7-methyl-1,3-dihydrobenzo[c][1,2]oxaborole-6-carbonyl)-L-valinate] | ≤ 20 nM | < 0.5 nM
Cc1c(C(=O)N[C@H](C(=O)OCc2ccc(F)c(F)c2)C(C)C)ccc2c1B(O)OC2 [Example 6-166, 3,4-Difluorobenzyl (1-hydroxy-7-methyl-1,3-dihydrobenzo[c][1,2]oxaborole-6-carbonyl)-L-valinate] | ≤ 20 nM | < 0.5 nM
Cc1c(C(=O)N[C@H](C(=O)OCc2ccc(OCCN3CCOCC3)cc2)C(C)C)ccc2c1B(O)OC2 [Example 6-247, 4-(2-Morpholinoethoxy)benzyl(1-hydroxy-7-methyl-1,3-dihydrobenzo[c][1,2]oxaborole-6-carbonyl)-L-valinate] | ≤ 20 nM | 0.51 to 9.99 nM
Cc1c(C(=O)N[C@H](C(=O)OCc2cccc(CN3CCN(C)CC3)c2)C(C)C)ccc2c1B(O)OC2 [Example 6-082, 3-((4-Methylpiperazin-1-yl)methyl)benzyl (1-hydroxy-7-methyl-1,3-dihydrobenzo[c][1,2]oxaborole-6-carbonyl)-L-valinate] | 21 to 999 nM | 0.51 to 9.99 nM
Cc1c(C(=O)N[C@H](C(=O)OCc2cccc(C#N)n2)C(C)C)ccc2c1B(O)OC2 [Example 6-189, (6-cyanopyridin-2-yl)methyl (1-hydroxy-7-methyl-1,3-dihydrobenzo [c][1,2]oxaborole-6-carbonyl)-L-valinate] | ≤ 20 nM | < 0.5 nM
Cc1c(C(=O)N[C@H](C(=O)OC[C@@H]2COC(C)(C)O2)C(C)C)ccc2c1B(O)OC2 [Example 6-145, ((S)-2,2-Dimethyl-1,3-dioxolan-4-yl)methyl (1-hydroxy-7-methyl-1,3-dihydrobenzo[c][1,2]oxaborole-6-carbonyl)-L-valinate] | ≤ 20 nM | 0.51 to 9.99 nM
CC(C)[C@H](NC(=O)c1ccc2c(c1)B(O)OC2)C(=O)OCc1ccc(F)cc1 [Example 6-030, 4-Fluorobenzyl (1-hydroxy-1,3-dihydrobenzo[c][1,2]oxaborole-6-carbonyl)-L-valinate] | 21 to 999 nM | 0.51 to 9.99 nM
Cc1c(C(=O)N[C@H](C(=O)OCc2cc(C(F)(F)F)ncn2)C(C)C)ccc2c1B(O)OC2 [Example 6-161, (6-(trifluoromethyl)pyrimidin-4-yl)methyl (1-hydroxy-7-methyl-1,3-dihydrobenzo[c][1,2]oxaborole-6-carbonyl)-L-valinate] | ≤ 20 nM | < 0.5 nM
Cc1c(C(=O)N[C@H](C(=O)OCC2COC2)C(C)C)ccc2c1B(O)OC2 [Example 6-150, Oxetan-3-ylmethyl (1-hydroxy-7-methyl-1,3-dihydrobenzo[c][1,2]oxaborole-6-carbonyl)-L-valinate] | 21 to 999 nM | 0.51 to 9.99 nM
Cc1c(C(=O)NC(C(=O)OCc2ccc(F)cc2)C(C)(C)F)ccc2c1B(O)OC2 (stereo not shown) [Example 6-091, 4-Fluorobenzyl 3-fluoro-2-(1-hydroxy-7-methyl-1,3-dihydrobenzo[c][1,2]oxaborole-6-carboxamido)-3-methylbutanoate] | ≤ 20 nM | < 0.5 nM
Cc1c(C(=O)N[C@H](C(=O)OCc2cccc(Cl)c2)C(C)C)ccc2c1B(O)OC2 [Example 6-043, 3-Chlorobenzyl (1-hydroxy-7-methyl-1,3-dihydrobenzo[c][1,2]oxaborole-6-carbonyl)-L-valinate] | ≤ 20 nM | < 0.5 nM
Cc1c(C(=O)N[C@H](C(=O)OCc2ccc(Cl)cc2)C(C)C)ccc2c1B(O)OC2 [Example 6-040, 4-Chlorobenzyl (1-hydroxy-7-methyl-1,3-dihydrobenzo[c][1,2]oxaborole-6-carbonyl)-L-valinate] | ≤ 20 nM | < 0.5 nM
Cc1c(C(=O)N[C@H](C(=O)OCc2ccc(S(C)(=O)=O)cc2)C(C)C)ccc2c1B(O)OC2 [Example 6-056, 4-(Methylsulfonyl)benzyl (1-hydroxy-7-methyl-1,3-dihydrobenzo[c][1,2]oxaborole-6-carbonyl)-L-valinate] | 21 to 999 nM | 0.51 to 9.99 nM
Cc1c(C(=O)N[C@H](C(=O)OC[C@H]2COC(C)(C)O2)C(C)C)ccc2c1B(O)OC2 [Example 6-144, ((R)-2,2-Dimethyl-1,3-dioxolan-4-yl)methyl (1-hydroxy-7-methyl-1,3-dihydrobenzo[c][1,2]oxaborole-6-carbonyl)-L-valinate] | ≤ 20 nM | 0.51 to 9.99 nM
Cc1c(C(=O)N[C@H](C(=O)OCc2ccc(F)cc2)C(C)C)ccc2c1B(O)OC2 [Example 6-165, 4-Fluorobenzyl (1-hydroxy-7-methyl-1,3-dihydrobenzo[c][1,2]oxaborole-6-carbonyl)-L-valinate] | ≤ 20 nM | < 0.5 nM
Cc1c(C(=O)N[C@H](C(=O)OCc2ccc3ccccc3n2)C(C)C)ccc2c1B(O)OC2 [Example 6-125, Quinolin-2-ylmethyl (1-hydroxy-7-methyl-1,3-dihydrobenzo[c][1,2]oxaborole-6-carbonyl)-L-valinate] | 21 to 999 nM | < 0.5 nM
Cc1c(C(=O)N[C@H](C(=O)OCc2cccc(N3CCN(C)CC3)c2)C(C)C)ccc2c1B(O)OC2 [Example 6-072, 3-(4-Methylpiperazin-1-yl)benzyl (1-hydroxy-7-methyl-1,3-dihydrobenzo[c][1,2]oxaborole-6-carbonyl)-L-valinate] | ≤ 20 nM | < 0.5 nM
